Measured values published in patent publication US20230079389A1, “COMPOSITION FOR USE IN PREVENTION OR TREATMENT OF OESOPHAGEAL DISEASES LINKED TO EPITHELIAL BARRIER DEFECTS” (THELIAL B.V., priority 2020, published 2023).
Where two headings read alike, the source gives them in different places.

What was measured:
Par6 = experiment: theLiTE assay: distribution of GFP-tagged Par6 in live follicular epithelia; details: for Par6 modulation (distribution of Par6 protein): live follicular epithelia of Drosophila egg chamber, Par6-GFP
Excerpt: The present inventors used a unique approach in order to identify compounds which reinforce the TJ system via the control of TJ initiation. Par6 was selected as the biological target; it acts as a regulator of tight junction initiation. Par6 has a polar distribution, with a defined zone of high abundance at one end of the cell. This Par6 distribution is key to the biological function, not just the absolute Par6 protein level.
Standard tools for RNA and protein level measurement are not adequate to discover compounds which target Par6 and the present inventors devised and implemented an assay where the distribution of Par6 in living tissues can be monitored: Thelial Live Targeted Epithelia (theLiTE™; U.S. Pat. No. 9,416,391).
The technology of theLITE™ allows monitoring the distribution of Par6—an intracellular protein that controls tight junction assembly. The assay was performed in live follicular epithelia of the egg chamber of the fruit fly Drosophila. Par6 was tagged with a green fluorescence protein (GFP) and its distribution within the cell was monitored by the GFP signal. […] This protein distribution is key to the biological function, not just the absolute protein level.
In theLiTE, the present inventors tested whether compounds modulate the distribution of Par6 protein in live follicular epithelia. In theLiTE more than 20 live egg chambers were exposed to test each compound and monitored for Par6 distribution after a set incubation time; any positive compounds were tested in three separate runs of experiments and over a broad range of concentrations. The full method is disclosed in the US patent document. […] The positive control in FIG. 2, indicated with a “+” sign, is Antimycin A, at a concentration of 40 micromolar. The negative control, indicated with a “−” sign is the solvent medium (Insect cell culture medium plus 10% dimethyl sulfoxide).

[1] = system: subjects suffering from GERD; experiment: 6-weeks treatment of GERD subjects, synergy between active compounds; format: in vivo, human; details: for subjects reporting reduction in severity of GERD, as well as reduced usage of PPIs: 500 mg twice daily oral, 14 patients per group; for effect on GERD (in words): twice daily oral
Method: In a 6-weeks treatment, 50 subjects suffering from GERD receive a twice daily oral dose (1 hour before the morning and the evening meal) with either • Quercetin (500 mg); • Myricetin (500 mg); • Quercetin (500 mg) and Myricetin (500 mg); • Quercetin (500 mg) and Genistein (300 mg); • Myricetin (500 mg) and Berberine (750 mg).

[2] = system: patients with non-erosive Gastro esophageal Reflux Disease (GERD); details: cited from earlier work

Row | Molecule | Par6 modulation (distribution of Par6 protein) (Par6) | toxicity (Par6; screen of over 2000 compounds) | subjects reporting reduction in severity of GERD, as well as reduced usage of PPIs [1] | effect on GERD (in words) [1] | toxicity (Par6) | esophageal epithelial barrier function, resistance to injury upon contact with hydrochloric acid ([2]; 500 mg orally twice daily (tablet) for 6 weeks, endoscopic biopsies before and after) | heartburn symptom improvement ([2]; 14 GERD sufferers, twice 500 mg daily, 6-week period)
1 | COc1ccc2cc3[n+](cc2c1OC)CCc1cc2c(cc1-3)OCO2 [Berberine, 5,6-dihydro-9,10-dimehtoxybenzo[g]-1,3-benzodioxolo[5,6-a]quinolizinium] | do not modulate Par6 | – | – | – | – | – | –
2 | O=c1c(O)c(-c2cc(O)c(O)c(O)c2)oc2cc(O)cc(O)c12 [Myricetin, 3,5,7-Trihydroxy-2-(3,4,5-trihydroxyphenyl)-4H-1-benzopyran-4-one] | potent Par6 modulation | low toxicity | 10 subjects report reduction in severity of GERD, | reduction of GERD severity | – | – | –
3 | Antimycin A [reference compound] | most potent compound in the test | toxic | – | – | – | – | –
4 | O=c1c(-c2ccc(O)cc2)coc2cc(O)cc(O)c12 [Genistein, 5,7-dihydro-3-(4-hydroxyphenyl)chromen-4-one] | do not modulate Par6 | – | – | – | – | – | –
5 | O=c1c(O)c(-c2ccc(O)c(O)c2)oc2cc(O)cc(O)c12 [Quercetin, 2-(3,4-dihydroxyphenyl)-3,5,7-trihydroxychromen-4-one] | potent Par6 modulation | – | 12 subjects report reduction in severity of GERD, | reduction of GERD severity | low toxicity | increases esophageal epithelial barrier function | no report of consistent effects
